Reference: ChEMBL document CHEMBL1201862, “PubChem BioAssay data set” (2004)
The source made the active and inactive calls.

Key:
[1] = cytotoxicity in HEK-293T cells, dose response, cytotoxicity control for TCR NF-kB inhibitor project, luminescence, T-cell screen hits (AID 489026); type: functional, cell-based;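 further: cells exposed to compound about 14 hours before the viability readout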
[2] = HepG2 cell cytotoxicity, dose response, cytotoxicity control for Shn3 inhibitor project, CellTiter-Glo, cherry-picked (AID 624134); type: functional, cell-based
[3] = control 3'UTR Renilla luciferase suppression, dose response, counter-screen for Shn3 inhibitor project, cell-based, Clone20-Shn3RL, cherry-picked (AID 624133); type: functional
[4] = Shn3 3'UTR reporter inhibitors, dose response, cell-based, Clone20 osteoblasts, firefly luciferase, cherry-picked (AID 624132); type: functional;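 further: firefly luciferase luminescence from reporter carrying the Shn3 3'UTR in osteoblasts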
Nonstructural protein 1 = Nonstructural protein 1 (Influenza A virus, UniProt Q194T2); type: functional, Influenza A virus (A/California/07/2009(H1N1))
INS1 = assay: beta cell apoptosis inhibitors, cytokine rescue, dose response, luminescence, retest (AID 449756); type: functional, cell-based; conditions: Rattus norvegicus;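 further: cell death triggered by IL-1 beta plus TNF-alpha plus IFN-gamma mixture; protective hits raise ATP signal compared with cytokine alone wells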
[5] = biological target: T1, Microphthalmia-associated transcription factor (Homo sapiens, UniProt O75030); assay: TRPM1 promoter luciferase signal decrease, dose response, MITF inhibitor project, cell-based, SK-MEL-5, cherry-picked, set 3 (AID 493073); type: functional
T1 sequence (O75030 whole entry): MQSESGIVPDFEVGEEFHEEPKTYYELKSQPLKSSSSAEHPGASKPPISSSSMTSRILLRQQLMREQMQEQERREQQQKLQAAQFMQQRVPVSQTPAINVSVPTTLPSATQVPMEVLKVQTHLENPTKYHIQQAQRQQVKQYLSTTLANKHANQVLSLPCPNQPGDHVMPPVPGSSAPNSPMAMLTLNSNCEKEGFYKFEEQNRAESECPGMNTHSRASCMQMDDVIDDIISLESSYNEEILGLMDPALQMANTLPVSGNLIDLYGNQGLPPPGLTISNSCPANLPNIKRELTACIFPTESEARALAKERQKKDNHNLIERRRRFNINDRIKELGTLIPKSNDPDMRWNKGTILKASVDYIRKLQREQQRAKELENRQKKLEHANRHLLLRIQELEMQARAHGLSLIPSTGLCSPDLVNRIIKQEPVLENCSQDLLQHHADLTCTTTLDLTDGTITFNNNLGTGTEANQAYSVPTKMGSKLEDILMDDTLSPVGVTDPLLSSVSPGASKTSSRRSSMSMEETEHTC

[6] = biological target: T2, Voltage-gated N-type calcium channel alpha-1B subunit/Amyloid beta A4 precursor protein-binding family A member 1 (Homo sapiens, UniProt Q00975+Q02410); type: protein assay
[7] = biological target: T2, Voltage-gated N-type calcium channel alpha-1B subunit/Amyloid beta A4 precursor protein-binding family A member 1; type: protein assay; remark: listed apart in the source
[8] = biological target: T3, Small ubiquitin-related modifier 1 (Homo sapiens, UniProt P63165); assay: inhibitors of SUMO1 partner interactions, dose response, biochemical, FRET (AID 624383); type: functional; conditions: read-out: IC50_Mean
[9] = biological target: T4, Carboxy-terminal domain RNA polymerase II polypeptide A small phosphatase 1 (Homo sapiens, UniProt Q9GZU7); assay: inhibitors of CTDSP1, concentration-response testing, biochemical assay, absorbance-based, actives from ultra-high-throughput screening (AID 540297); type: functional
T4 sequence (Q9GZU7 whole entry): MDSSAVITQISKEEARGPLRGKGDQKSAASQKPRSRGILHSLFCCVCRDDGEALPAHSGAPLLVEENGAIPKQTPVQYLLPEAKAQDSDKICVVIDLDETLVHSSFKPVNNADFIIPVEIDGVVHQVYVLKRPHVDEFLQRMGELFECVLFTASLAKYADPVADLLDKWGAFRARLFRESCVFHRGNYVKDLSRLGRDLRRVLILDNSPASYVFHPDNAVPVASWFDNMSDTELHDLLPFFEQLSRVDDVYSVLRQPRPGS

[10] = biological target: T3, Small ubiquitin-related modifier 1; assay: inhibitors of SUMO1 peptide binding, dose response, biochemical, fluorescence polarization, uHTS hits (AID 624382); type: functional; conditions: read-out: IC50_Mean
[11] = MC4R antagonists, dose response, counter-screen for LGR2 antagonist project, cell-based, plate reader, cherry pick (AID 743444); type: functional;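 further: transfected HEK 293 cells stimulated with alpha-MSH peptide; potency of inhibitors of the alpha-MSH evoked signal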
[12] = LGR2 antagonists, dose response, cell-based, HEK293, CRE-luciferase reporter, cherry pick, set 2 (AID 743343); type: functional;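 further: transfected cells were stimulated with diluted bursicon conditioned medium after compound addition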
SUMO-activating enzyme [13] = biological target: T5, SUMO-activating enzyme (Homo sapiens, UniProt Q9UBT2); assay: SUMOylation inhibitor hit validation, confirmation, SUMOylation inhibitor project, biochemical, AlphaScreen (AID 2018); type: functional
SUMO-activating enzyme [14] = biological target: T5, SUMO-activating enzyme; assay: inhibitors of in vitro SUMOylation cascade, primary screen, biochemical, HTRF, uHTS (AID 2006); type: protein-complex assay
[15] = Luminescence Cell-Based Dose Retest to Confirm Inhibitors of Cancer Stem Cells. [Related pubchem assays (depositor defined):AID2717, AID2721]; type: functional, Homo sapiens; conditions: Homo sapiens
Aminopeptidase N = biological target: T6, Aminopeptidase N (Plasmodium falciparum FcB1/Columbia, UniProt O96935); assay: P. falciparum M1AAP inhibitors, biochemical, fluorogenic H-Leu-NHMec substrate, 1536-well (AID 1445); set-up: species or system Plasmodium falciparum 3D7, 3D7
T6 sequence (O96935 whole entry): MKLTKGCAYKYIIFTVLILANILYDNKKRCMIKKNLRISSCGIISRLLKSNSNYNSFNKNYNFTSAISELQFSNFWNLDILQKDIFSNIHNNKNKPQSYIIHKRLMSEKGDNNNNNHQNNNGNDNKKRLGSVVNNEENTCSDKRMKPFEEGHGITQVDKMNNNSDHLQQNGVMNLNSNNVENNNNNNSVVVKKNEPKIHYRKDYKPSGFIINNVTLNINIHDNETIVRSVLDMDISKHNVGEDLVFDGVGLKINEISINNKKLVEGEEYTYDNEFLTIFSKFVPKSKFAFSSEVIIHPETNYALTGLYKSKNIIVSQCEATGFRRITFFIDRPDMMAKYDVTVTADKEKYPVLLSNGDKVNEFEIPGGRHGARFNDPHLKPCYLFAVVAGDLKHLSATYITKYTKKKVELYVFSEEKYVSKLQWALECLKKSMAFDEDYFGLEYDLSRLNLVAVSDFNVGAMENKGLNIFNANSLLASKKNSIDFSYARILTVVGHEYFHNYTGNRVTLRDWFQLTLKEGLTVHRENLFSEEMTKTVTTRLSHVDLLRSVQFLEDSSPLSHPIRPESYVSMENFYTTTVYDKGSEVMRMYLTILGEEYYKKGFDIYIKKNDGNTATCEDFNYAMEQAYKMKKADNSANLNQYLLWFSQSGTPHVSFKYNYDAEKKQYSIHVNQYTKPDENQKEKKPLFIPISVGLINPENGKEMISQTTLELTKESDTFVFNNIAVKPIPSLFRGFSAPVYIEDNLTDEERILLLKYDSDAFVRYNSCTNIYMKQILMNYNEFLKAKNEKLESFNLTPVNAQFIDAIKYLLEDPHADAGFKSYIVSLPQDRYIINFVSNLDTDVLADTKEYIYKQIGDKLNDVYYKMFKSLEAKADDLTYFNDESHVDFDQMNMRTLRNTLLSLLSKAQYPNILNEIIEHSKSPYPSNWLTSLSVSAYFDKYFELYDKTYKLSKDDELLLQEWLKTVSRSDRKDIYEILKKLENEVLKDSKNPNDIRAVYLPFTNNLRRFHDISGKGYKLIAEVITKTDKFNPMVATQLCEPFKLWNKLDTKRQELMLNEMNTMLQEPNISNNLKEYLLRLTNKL

[16] = P. falciparum Dd2 growth inhibitors, dose response, SYBR Green, cherry-picked samples (AID 1159567); type: functional, cell-based
[17] = HepG2 cell cytotoxicity, dose response, cytotoxicity control, cherry-picked samples (AID 1159577); type: functional, cell-based
Mu-type opioid receptor = Mu-type opioid receptor (Homo sapiens, UniProt P35372); type: functional, cell-based;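 further: U2OS cells with beta-arrestin recruitment to OPRM1 by beta-gal complementation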
[18] = biological target: 5-hydroxytryptamine receptor 2A (Mus musculus, UniProt P35363); type: functional, cell-based;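 further: CHO-K1 cells with tagged receptor and beta-arrestin; agonist potency measured as compound-induced activation of the receptor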
Estrogen receptor = biological target: T7, Estrogen receptor (Homo sapiens, UniProt P03372);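 further: potency for inhibiting coactivator peptide recruitment to the receptor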
T7 sequence (P03372 whole entry): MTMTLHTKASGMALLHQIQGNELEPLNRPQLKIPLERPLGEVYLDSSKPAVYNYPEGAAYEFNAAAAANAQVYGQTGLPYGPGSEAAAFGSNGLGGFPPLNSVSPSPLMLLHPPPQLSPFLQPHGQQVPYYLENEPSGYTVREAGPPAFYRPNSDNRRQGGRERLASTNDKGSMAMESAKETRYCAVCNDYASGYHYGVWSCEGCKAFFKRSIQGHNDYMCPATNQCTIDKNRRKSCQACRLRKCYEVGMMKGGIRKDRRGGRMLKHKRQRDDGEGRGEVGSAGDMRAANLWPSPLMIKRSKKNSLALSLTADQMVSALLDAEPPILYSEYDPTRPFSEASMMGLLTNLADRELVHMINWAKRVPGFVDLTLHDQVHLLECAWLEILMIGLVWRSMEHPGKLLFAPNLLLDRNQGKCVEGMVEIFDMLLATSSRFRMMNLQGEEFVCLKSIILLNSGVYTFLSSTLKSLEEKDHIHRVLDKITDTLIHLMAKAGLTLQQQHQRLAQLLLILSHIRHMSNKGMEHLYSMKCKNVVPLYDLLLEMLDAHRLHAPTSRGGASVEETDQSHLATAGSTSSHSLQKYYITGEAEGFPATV

Nonstructural protein 1, sequence (Q194T2 whole entry): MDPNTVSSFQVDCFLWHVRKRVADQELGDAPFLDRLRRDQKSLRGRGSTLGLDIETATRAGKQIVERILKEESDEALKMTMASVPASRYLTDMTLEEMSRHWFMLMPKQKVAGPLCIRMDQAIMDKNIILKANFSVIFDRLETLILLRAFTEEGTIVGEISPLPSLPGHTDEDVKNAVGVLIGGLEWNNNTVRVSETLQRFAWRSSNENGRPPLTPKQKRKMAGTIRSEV
T2 sequence (Q00975 whole entry): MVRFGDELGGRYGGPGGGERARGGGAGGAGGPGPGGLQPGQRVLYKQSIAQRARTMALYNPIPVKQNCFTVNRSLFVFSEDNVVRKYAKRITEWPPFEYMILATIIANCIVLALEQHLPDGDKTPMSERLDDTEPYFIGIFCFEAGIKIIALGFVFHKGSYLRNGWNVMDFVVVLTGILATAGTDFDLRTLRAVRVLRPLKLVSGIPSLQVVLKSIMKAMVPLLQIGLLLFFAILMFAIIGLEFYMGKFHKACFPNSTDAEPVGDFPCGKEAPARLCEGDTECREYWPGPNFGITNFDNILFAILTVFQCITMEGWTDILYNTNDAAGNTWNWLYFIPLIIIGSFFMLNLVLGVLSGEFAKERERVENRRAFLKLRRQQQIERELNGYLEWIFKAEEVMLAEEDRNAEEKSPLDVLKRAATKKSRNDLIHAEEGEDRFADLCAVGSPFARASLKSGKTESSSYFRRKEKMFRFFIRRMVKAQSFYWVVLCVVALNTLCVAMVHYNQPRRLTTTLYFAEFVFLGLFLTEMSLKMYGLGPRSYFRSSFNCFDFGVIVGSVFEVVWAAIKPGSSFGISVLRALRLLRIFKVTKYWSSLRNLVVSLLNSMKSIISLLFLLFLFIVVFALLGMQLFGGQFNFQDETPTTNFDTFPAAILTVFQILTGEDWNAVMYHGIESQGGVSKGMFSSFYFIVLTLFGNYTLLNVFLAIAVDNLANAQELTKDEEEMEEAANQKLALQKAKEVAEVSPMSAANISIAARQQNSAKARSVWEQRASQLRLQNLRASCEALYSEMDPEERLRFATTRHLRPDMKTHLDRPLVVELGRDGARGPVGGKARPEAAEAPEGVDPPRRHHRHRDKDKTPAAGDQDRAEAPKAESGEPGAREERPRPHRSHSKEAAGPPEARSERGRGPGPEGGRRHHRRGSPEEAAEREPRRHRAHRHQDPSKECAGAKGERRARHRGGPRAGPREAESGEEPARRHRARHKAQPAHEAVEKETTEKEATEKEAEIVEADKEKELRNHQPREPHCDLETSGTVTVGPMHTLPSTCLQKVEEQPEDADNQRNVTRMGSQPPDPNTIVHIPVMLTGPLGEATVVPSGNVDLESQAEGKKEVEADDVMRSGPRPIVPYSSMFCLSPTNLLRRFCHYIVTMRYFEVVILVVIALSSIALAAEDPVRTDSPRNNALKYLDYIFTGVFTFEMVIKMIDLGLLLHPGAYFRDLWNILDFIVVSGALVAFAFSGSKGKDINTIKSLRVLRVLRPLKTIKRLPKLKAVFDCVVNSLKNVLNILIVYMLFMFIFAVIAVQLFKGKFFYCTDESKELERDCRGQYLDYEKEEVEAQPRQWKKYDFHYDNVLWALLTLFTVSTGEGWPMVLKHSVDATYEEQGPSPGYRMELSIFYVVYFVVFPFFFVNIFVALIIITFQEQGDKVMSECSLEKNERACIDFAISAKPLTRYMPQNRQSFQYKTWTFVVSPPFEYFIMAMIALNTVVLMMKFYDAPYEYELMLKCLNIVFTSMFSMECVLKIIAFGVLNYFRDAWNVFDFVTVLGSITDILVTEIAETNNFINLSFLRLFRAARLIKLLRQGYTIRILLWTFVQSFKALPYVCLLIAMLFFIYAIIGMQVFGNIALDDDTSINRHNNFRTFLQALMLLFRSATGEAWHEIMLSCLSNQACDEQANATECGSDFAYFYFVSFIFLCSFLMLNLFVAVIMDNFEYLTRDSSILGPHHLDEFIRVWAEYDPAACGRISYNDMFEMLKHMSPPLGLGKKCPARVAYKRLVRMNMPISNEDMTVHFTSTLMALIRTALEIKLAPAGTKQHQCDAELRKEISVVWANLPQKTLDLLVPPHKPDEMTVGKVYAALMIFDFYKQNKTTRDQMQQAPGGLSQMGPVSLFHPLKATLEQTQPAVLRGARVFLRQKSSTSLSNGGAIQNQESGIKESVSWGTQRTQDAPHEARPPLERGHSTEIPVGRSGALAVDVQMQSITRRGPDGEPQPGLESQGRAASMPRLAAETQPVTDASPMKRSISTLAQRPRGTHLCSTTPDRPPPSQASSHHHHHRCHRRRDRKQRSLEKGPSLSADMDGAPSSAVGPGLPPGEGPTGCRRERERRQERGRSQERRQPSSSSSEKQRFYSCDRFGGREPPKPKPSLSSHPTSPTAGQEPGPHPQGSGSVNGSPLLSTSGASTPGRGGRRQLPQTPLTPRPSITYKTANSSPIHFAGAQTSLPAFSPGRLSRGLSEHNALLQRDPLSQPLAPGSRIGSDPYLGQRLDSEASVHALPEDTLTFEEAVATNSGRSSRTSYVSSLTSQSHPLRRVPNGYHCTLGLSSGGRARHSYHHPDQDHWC
T2 sequence (Q02410 whole entry): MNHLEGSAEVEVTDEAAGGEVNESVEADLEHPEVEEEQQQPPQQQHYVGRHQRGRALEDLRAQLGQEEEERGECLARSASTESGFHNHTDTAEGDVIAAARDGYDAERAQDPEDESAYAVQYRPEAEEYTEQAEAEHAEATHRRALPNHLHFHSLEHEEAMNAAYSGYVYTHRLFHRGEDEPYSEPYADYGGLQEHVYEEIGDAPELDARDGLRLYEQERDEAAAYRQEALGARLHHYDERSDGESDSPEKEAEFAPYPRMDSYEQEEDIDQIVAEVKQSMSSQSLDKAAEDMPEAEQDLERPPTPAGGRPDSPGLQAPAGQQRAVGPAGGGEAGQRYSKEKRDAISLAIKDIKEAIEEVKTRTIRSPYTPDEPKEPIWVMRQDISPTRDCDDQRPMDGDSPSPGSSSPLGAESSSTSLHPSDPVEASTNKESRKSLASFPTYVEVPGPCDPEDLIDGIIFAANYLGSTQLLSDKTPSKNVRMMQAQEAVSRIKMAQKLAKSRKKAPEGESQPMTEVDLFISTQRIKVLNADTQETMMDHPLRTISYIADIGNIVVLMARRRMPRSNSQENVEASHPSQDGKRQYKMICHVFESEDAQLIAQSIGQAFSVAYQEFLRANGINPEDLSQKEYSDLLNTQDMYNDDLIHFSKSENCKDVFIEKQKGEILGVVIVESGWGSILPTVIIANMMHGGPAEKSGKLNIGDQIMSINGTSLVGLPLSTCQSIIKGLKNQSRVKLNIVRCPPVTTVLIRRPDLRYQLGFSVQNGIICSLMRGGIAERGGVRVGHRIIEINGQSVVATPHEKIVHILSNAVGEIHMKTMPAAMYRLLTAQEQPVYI
T5 sequence (Q9UBE0 whole entry): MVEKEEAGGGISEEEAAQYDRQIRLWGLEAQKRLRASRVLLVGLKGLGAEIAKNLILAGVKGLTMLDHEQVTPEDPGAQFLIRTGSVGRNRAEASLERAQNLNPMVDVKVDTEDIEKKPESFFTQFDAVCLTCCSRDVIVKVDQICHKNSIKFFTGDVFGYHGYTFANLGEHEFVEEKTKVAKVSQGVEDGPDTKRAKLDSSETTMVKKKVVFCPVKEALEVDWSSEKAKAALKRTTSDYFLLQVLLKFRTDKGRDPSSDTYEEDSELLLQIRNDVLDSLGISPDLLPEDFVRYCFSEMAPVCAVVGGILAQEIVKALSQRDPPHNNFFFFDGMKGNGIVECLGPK
T5 sequence (Q9UBT2 whole entry): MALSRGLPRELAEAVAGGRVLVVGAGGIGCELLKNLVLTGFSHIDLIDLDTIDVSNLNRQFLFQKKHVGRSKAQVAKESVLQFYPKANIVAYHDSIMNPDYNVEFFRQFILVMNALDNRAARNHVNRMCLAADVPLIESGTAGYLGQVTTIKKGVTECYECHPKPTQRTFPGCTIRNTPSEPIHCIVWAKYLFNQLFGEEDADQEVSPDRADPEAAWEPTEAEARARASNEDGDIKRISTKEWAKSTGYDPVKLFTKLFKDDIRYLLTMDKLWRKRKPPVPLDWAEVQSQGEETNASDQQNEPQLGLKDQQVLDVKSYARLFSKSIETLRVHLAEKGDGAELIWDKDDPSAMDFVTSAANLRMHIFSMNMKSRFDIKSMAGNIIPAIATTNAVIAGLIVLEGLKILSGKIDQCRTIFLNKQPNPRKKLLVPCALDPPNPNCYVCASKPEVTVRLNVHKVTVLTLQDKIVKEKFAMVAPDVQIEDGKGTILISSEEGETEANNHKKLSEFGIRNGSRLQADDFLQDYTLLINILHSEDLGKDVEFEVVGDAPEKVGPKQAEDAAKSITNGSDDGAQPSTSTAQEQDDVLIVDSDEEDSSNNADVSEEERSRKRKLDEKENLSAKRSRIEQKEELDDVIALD
T3 sequence (P63165 whole entry, the tested form may be a part): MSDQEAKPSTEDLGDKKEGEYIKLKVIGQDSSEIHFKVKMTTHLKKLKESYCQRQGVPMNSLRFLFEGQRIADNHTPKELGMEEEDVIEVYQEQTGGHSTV
5-hydroxytryptamine receptor 2A, sequence (P35363 whole entry): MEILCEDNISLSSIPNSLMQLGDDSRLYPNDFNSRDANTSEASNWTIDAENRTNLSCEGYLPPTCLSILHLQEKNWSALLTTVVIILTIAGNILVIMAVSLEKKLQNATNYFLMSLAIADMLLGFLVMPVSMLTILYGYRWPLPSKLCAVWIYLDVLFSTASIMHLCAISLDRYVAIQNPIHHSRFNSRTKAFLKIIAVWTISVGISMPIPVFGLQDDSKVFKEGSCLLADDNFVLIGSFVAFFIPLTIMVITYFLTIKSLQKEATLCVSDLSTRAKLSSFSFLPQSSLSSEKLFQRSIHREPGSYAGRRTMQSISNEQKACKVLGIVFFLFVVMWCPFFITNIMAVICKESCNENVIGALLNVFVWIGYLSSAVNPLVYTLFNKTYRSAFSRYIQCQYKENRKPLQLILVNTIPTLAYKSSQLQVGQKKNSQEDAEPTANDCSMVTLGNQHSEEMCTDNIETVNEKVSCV

For `O=C(Nc1ccncc1)C1CCCN(S(=O)(=O)c2cccc3cccnc23)C1` (configuration not stated), the IC50 [1] was 67.5 µM (inactive).
With `O=C(Nc1nc(-c2ccccn2)cs1)c1ccc(F)c(S(=O)(=O)N2CCOCC2)c1` the AC50 [2] was > 70 µM (inactive), the AC50 [3] was 0.711 µM (active) and the AC50 [4] was 1.32 µM (active). The IC50 (Nonstructural protein 1) was 7.88 µM (active), the AC50 (INS1) was 1.59 µM (active) and the AC50 [5] was 5.7 µM (active).
For `Cc1nc2sc(C(=O)OC(C)C)c(N)c2c(C)c1C`, the IC50 [6] was 4.25 µM (active) and the IC50 [7] was > 50 µM (inactive).
For `O=C(O)c1cc(-c2ccco2)nn1-c1cccc(Cl)c1`, the IC50 [8] was 27.1 µM (inactive), the IC50 [9] was 5.39 µM (active) and the IC50 [10] was > 66.6 µM (inactive).
In the case of `Cn1cccc1C(=O)OCC(=O)Nc1ccc2c(c1)OCCO2`, the AC50 [11] is reported as 14.8 µM (active) and the AC50 [12] is reported as 11.3 µM (active).
With `O=C(Nc1ccc(N2CCOCC2)cc1)c1ccc(Cl)c(S(=O)(=O)N2CCCCC2)c1` the AC50 [2] was 1.18 µM (active), the IC50 [1] was > 80 µM (inactive) and the AC50 [3] was 1.58 µM (active). The AC50 [4] was 0.81 µM (active).
For `COc1cccc(N2CCN(C(=O)c3cn(Cc4ccccc4)nc3-c3cccnc3)CC2)c1`, the IC50 [1] was > 80 µM (inactive).
In the case of `COc1ccc2[nH]c3c(=O)n(CCCC(=O)NC4CCC(C)CC4)c(=S)[nH]c3c2c1` (configuration not stated), the IC50 (SUMO-activating enzyme [13]) is reported as 38.1 µM (active) and the IC50 (SUMO-activating enzyme [14]) is reported as 22.7 µM (active).
In the case of `O=C(N/N=C(\Cc1ncc[nH]1)c1ccccc1)c1ccncc1`, the AC50 [15] is reported as 3.42 µM (active), the IC50 (Nonstructural protein 1) is reported as 2.46 µM (active) and the IC50 (Aminopeptidase N) is reported as 21.4 µM (active). The AC50 (INS1) was 7.38 µM (active).
With `COc1ccccc1C#Cc1ccc([C@@H]2[C@@H](CO)N(C(=O)C3CCCC3)[C@H]2C#N)cc1` the AC50 [16] was 4.57 µM (active) and the AC50 [17] was > 39 µM (inactive).
For `COc1ccc(C#Cc2ccc([C@H]3[C@@H](CO)N4CCCCN(Cc5ccncc5)C[C@H]34)cc2)cc1`, the AC50 [16] was 1.87 µM (active) and the AC50 [17] was 10.7 µM (active).
For `O=C1C2CCCN2C(=O)N1CCCCN1CCN(c2ccccc2)CC1` (configuration not stated), the EC50 (Mu-type opioid receptor) was 92.4 µM (inactive) and the EC50 [18] was 2.81 µM (active).
In the case of `CCOC(=O)[N-]c1cn(N2CCOCC2)n[o+]1` [MOLSIDOMINE], the IC50 (Estrogen receptor) is reported as 24.7 µM (active).
